Laboratory results published in paper PMC9286713 (CPT: Pharmacometrics & Systems Pharmacology, 2022).
≈ marks a conversion by molar mass, not a printed value. Read-outs that look alike come from different tables or passages of the source. One block for each compound: values may come before it.

What was measured:
[1] = human ADME study (unpublished data); cited from earlier work
logP determination = type: physicochemical
pKa determination = type: physicochemical
[2] = Solubility‐pH profile in buffers at 37°C; type: physicochemical
Blood/plasma ratio = type: in vitro ADME; settings: blood and plasma
MATE1 = biological target: T1, MATE1 (Homo sapiens, UniProt Q96FL8); assay: MATE1 inhibition; type: in vitro ADME
T1 sequence (Q96FL8 1-570): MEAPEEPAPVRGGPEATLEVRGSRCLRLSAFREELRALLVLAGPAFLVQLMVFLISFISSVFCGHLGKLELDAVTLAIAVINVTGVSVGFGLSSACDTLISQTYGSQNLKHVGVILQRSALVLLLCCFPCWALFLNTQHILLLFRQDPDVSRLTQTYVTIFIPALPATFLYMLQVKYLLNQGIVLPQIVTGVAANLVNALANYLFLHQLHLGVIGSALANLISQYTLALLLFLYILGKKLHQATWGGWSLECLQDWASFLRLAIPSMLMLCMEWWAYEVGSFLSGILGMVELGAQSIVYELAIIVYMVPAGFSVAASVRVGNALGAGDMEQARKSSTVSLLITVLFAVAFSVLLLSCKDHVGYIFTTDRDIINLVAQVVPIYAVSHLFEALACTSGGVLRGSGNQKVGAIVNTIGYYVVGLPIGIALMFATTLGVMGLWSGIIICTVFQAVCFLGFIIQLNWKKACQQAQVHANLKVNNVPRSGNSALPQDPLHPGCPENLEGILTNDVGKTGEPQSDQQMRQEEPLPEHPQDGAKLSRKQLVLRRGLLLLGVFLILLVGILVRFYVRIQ

P‐glycoprotein (P‐gp) = P‐glycoprotein (P‐gp) (Homo sapiens, UniProt P08183); assay: In vitro transport study, pemigatinib as substrate: P‐gp mediated efflux; type: in vitro ADME; settings: data on file
Chain of P‐glycoprotein (P‐gp) (P08183 whole entry): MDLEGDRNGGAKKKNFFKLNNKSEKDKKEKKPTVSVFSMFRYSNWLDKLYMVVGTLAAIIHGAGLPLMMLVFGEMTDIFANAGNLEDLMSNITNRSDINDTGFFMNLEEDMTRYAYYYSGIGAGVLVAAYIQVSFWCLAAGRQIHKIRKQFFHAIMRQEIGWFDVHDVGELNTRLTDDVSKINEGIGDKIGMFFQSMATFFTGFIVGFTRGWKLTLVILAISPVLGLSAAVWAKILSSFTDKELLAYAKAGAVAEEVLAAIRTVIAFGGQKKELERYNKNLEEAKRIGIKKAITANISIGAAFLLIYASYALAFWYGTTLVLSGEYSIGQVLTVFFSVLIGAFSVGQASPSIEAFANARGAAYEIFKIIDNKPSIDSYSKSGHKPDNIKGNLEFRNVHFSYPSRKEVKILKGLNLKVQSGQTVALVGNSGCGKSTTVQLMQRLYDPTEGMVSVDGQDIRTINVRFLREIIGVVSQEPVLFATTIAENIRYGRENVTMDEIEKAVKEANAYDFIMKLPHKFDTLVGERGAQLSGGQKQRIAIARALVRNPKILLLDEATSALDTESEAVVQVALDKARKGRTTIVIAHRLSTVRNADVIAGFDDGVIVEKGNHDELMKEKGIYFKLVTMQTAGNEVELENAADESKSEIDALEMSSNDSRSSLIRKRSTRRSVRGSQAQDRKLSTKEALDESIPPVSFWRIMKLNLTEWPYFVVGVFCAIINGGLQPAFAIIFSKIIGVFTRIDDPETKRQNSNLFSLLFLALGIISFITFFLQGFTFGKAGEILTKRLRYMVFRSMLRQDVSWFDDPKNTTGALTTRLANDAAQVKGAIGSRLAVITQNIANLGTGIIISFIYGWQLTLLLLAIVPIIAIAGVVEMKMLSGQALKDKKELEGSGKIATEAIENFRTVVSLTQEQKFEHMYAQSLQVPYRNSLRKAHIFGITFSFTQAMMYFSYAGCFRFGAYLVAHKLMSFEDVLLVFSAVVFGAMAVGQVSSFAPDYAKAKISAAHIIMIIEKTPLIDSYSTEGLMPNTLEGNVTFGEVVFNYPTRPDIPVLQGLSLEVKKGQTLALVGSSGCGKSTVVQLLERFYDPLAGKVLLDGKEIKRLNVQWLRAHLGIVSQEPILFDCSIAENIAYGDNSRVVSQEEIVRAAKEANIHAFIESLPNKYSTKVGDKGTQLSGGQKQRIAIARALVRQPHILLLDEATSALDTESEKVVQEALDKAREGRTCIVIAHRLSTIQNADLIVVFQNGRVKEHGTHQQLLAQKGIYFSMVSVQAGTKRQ

[3] = Human mass balance / ADME study in healthy participants; type: in vivo
[4] = cited from earlier work; for Observed AUC0–∞: geometric mean
[5] = patients with cancer, cited from earlier work; for Observed AUCss,0–24: geometric mean
[6] = fed state; cited from earlier work
[7] = cited from earlier work
OCT2 = biological target: T2, OCT2 (Homo sapiens, UniProt O15244); assay: OCT2 inhibition
T2 sequence (O15244 1-555): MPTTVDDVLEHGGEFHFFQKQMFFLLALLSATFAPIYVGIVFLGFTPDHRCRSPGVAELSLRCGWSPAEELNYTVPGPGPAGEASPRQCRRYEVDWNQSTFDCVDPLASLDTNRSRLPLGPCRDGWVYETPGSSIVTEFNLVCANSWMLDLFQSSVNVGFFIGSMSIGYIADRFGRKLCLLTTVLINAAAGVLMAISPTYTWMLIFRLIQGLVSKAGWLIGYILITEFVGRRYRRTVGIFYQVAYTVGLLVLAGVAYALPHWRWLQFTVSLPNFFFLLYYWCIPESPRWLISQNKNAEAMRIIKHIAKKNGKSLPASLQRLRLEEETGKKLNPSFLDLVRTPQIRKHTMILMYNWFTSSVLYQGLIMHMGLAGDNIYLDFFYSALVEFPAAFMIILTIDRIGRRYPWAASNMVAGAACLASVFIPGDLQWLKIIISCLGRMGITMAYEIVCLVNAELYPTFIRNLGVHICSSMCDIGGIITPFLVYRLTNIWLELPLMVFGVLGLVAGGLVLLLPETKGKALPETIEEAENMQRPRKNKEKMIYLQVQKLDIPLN

P‐gp = P‐gp (Homo sapiens, UniProt P08183); assay: P‐gp inhibition
Chain of P‐gp (P08183 whole entry): as the sequence (P08183 whole entry) above

[8] = healthy participants, unpublished data

SMILES: CCN1C(=O)N(c2c(F)c(O)cc(OC)c2F)Cc2cnc3[nH]c(CN4CCOCC4)cc3c21 [M2, O‐desmethyl‐pemigatinib]
Metabolite burden in urine and feces derived from M2 and its secondary metabolites [1]: 76.9%

logP (logP determination): 2.2
Compound type (pKa determination): Diprotic base
pKa (pKa determination; first printed pKa of the diprotic base): 5.7
pKa (pKa determination; second printed pKa of the diprotic base): 3.1
solubility ([2]; buffer, 37 °C, pH 1.2, aqueous buffer, Solubility, pH 1.2 buffer): ~710 µg/mL (≈ 1460 µM)
solubility ([2]; buffer, 37 °C, pH 2, aqueous buffer, Solubility, pH 2.0 buffer): 650 µg/mL (≈ 1330 µM)
solubility ([2]; buffer, 37 °C, pH 6.5, aqueous buffer, Solubility, pH 6.5 buffer): < 1 µg/mL
solubility ([2]; buffer, 37 °C, pH 7.4, aqueous buffer, Solubility, pH 7.4 buffer): < 1 µg/mL
solubility ([2]; buffer, pH 3.3, Solubility, pH 3.3): 200 µg/mL (≈ 410 µM)
solubility ([2]; buffer, pH 4.3, Solubility, pH 4.3): 30 µg/mL (≈ 61.5 µM)
solubility ([2]; buffer, pH 5.3, Solubility, pH 5.3): 1 µg/mL (≈ 2.05 µM)
solubility ([2]; pH 1.2 buffer, 37°C): 710 µg/mL (≈ 1460 µM)
blood plasma ratio (Blood/plasma ratio): 0.96
IC50 (MATE1): 1100 nM
Concentration at which P‐gp mediated efflux was saturated (P‐glycoprotein (P‐gp)): 1000 nM
Total radioactivity excreted in feces [3, 8]: 82.4%
Total radioactivity excreted in urine [3, 8]: 12.6%
Radioactivity blood/plasma value ([3]; human ADME study): 0.80
CL renal ([3]; human, urine, oral): ~3.33 mL/min
Administered radioactive dose recovered as unchanged pemigatinib in feces ([3]; in vivo): 1.4%
Dose excreted in urine as unchanged pemigatinib (renal excretion) ([3]; in vivo): ~ 1%
IC50 (OCT2): 75 nM
IC50 (P‐gp): 4800 nM
SMILES: CCN1C(=O)N(c2c(F)c(OC)cc(OC)c2F)Cc2cnc3[nH]c(CN4CCOCC4)cc3c21 [pemigatinib, Pemigatinib]
Increase in pemigatinib AUC ([4]; itraconazole coadministration): ~90%
Increase in pemigatinib Cmax ([4]; itraconazole coadministration): ~20%
CLpo (oral clearance) ([4]; pemigatinib alone cohort of itraconazole DDI study, healthy volunteers): 14.5 L/h
Decrease in half‐life of pemigatinib ([4]; rifampin coadministration): 63%
Decrease in pemigatinib AUC ([4]; rifampin coadministration): 85%
Observed AUC0–∞ ([4]; single oral dose 4.5 mg, healthy volunteers): 0.672 µM·h
Observed AUC0–∞ ([4]; single oral dose 13.5 mg, healthy volunteers): 1.96 µM·h
Observed AUCss,0–24 ([5]; multiple oral doses 6 mg): 1.05 µM·h
Observed AUCss,0–24 ([5]; multiple oral doses 9 mg): 1.67 µM·h
Terminal half‐life ([5]; oral dosing): ~ 15 h
CLpo (oral clearance) ([5]; phase I study): 12.0 L/h
Apparent volume of distribution, geometric mean [5]: 173 to 244 L
SS oral clearance, geometric mean [5]: 9.88 to 11.7 L/h
Decrease of geometric mean Cmax [6]: 18%
Increase of geometric mean AUC0–24 at SS [6]: 11%
Total radioactivity accounted for by known metabolites [1]: 72%
Decrease of geometric mean AUC of pemigatinib ([7]; coadministration with esomeprazole): 8%
Decrease of geometric mean Cmax of pemigatinib ([7]; coadministration with histamine‐2 antagonist ranitidine): 2%
Decrease of geometric mean Cmax of pemigatinib ([7]; coadministration with proton pump inhibitor esomeprazole): 35%
Increase of geometric mean AUC of pemigatinib ([7]; coadministration with ranitidine): 3%
